Source: ChEMBL document CHEMBL3421620, “A facile synthesis of novel miconazole analogues and the evaluation of their antifungal activity” (2015)
Converted amounts (≈) assume the structure as drawn. Values belong to the compound of their own block, whether it stands above or below them.

How the values were obtained:
Assay type in all cases: functional
Candida albicans [1] = assay: Antifungal activity against Candida albicans Strain 10 by broth microdilution method
Rhizopus arrhizus = assay: Antifungal activity against Rhizopus oryzae ATCC 10329 by broth microdilution method
Candida albicans [2] = assay: Antifungal activity against Candida albicans Strain 21 by broth microdilution method
Candida albicans [3] = assay: Antifungal activity against Candida albicans Strain 26 by broth microdilution method
Candida albicans [4] = assay: Antifungal activity against Candida albicans Strain 18 by broth microdilution method
Candida albicans [5] = assay: Antifungal activity against Candida albicans Strain 6 by broth microdilution method
Candida albicans [6] = assay: Antifungal activity against Candida albicans Strain 7 by broth microdilution method
Candida albicans [7] = assay: Antifungal activity against Candida albicans ATCC 10231 by broth microdilution method
Candida albicans [8] = assay: Antifungal activity against Candida albicans Strain 3 by broth microdilution method
Candida albicans [9] = assay: Antifungal activity against Candida albicans Strain 14 by broth microdilution method
Yarrowia lipolytica = assay: Antifungal activity against Candida lipolytica by broth microdilution method
Candida parapsilosis = assay: Antifungal activity against Candida parapsilosis by broth microdilution method; settings: Lodderomyces parapsilosis
Candida albicans [10] = assay: Antifungal activity against Candida albicans Strain 1 by broth microdilution method
Candida albicans [11] = assay: Antifungal activity against Candida albicans Strain 15 by broth microdilution method
Candida albicans [12] = assay: Antifungal activity against Candida albicans Strain 9 by broth microdilution method
Candida albicans [13] = assay: Antifungal activity against Candida albicans Strain 25 by broth microdilution method
Candida albicans [14] = assay: Antifungal activity against Candida albicans Strain 12 by broth microdilution method
Candida albicans [15] = assay: Antifungal activity against Candida albicans Strain 17 by broth microdilution method
Candida albicans [16] = assay: Antifungal activity against Candida albicans Strain 22 by broth microdilution method
Candida albicans [17] = assay: Antifungal activity against Candida albicans Strain 24 by broth microdilution method
Candida albicans [18] = assay: Antifungal activity against Candida albicans Strain 28 by broth microdilution method
Nakaseomyces glabratus = assay: Antifungal activity against Candida glabrata by broth microdilution method
Candida albicans [19] = assay: Antifungal activity against Candida albicans Strain 20 by broth microdilution method
Candida albicans [20] = assay: Antifungal activity against Candida albicans Strain 19 by broth microdilution method
Mucor hiemalis = assay: Antifungal activity against Mucor hiemalis ATCC 8690 by broth microdilution method
Aspergillus fumigatus = assay: Antifungal activity against Aspergillus fumigatus 16907 by broth microdilution method
Candida albicans [21] = assay: Antifungal activity against Candida albicans Strain 5 by broth microdilution method
Candida albicans [22] = assay: Antifungal activity against Candida albicans Strain 13 by broth microdilution method
Candida albicans [23] = assay: Antifungal activity against Candida albicans Strain 16 by broth microdilution method
Candida albicans [24] = assay: Antifungal activity against Candida albicans Strain 23 by broth microdilution method
Candida albicans [25] = assay: Antifungal activity against Candida albicans Strain 11 by broth microdilution method
Candida albicans [26] = assay: Antifungal activity against Candida albicans Strain 2 by broth microdilution method
[27] = Antifungal activity against Trichosporon cutaneum ATCC 28592 by broth microdilution method; settings: Cutaneotrichosporon cutaneum
Candida albicans [28] = assay: Antifungal activity against Candida albicans Strain 8 by broth microdilution method
Candida albicans [29] = assay: Antifungal activity against Candida albicans Strain 4 by broth microdilution method
Kluyveromyces marxianus = assay: Antifungal activity against Candida pseudotropicalis by broth microdilution method
Candida albicans [30] = assay: Antifungal activity against Candida albicans Strain 29 by broth microdilution method
Pichia kudriavzevii = assay: Antifungal activity against Candida krusei by broth microdilution method
Candida tropicalis = assay: Antifungal activity against Candida tropicalis ATCC 13803 by broth microdilution method
Cyberlindnera jadinii = assay: Antifungal activity against Candida utilis ATCC 9226 by broth microdilution method; settings: Williopsis jadinii
Candida albicans [31] = assay: Antifungal activity against Candida albicans Strain 27 by broth microdilution method

MIC (Candida albicans [1]): 0.12 µg/mL (≈ 0.318 µM)
MIC (Rhizopus arrhizus): > 16 µg/mL
MIC (Candida albicans [2]): 0.25 µg/mL (≈ 0.663 µM)
MIC (Candida albicans [3]): 0.25 µg/mL (≈ 0.663 µM)
MIC (Candida albicans [4]): 0.06 µg/mL (≈ 0.159 µM)
MIC (Candida albicans [5]): 0.12 µg/mL (≈ 0.318 µM)
MIC (Candida albicans [6]): 0.12 µg/mL (≈ 0.318 µM)
MIC (Candida albicans [7]): 0.12 µg/mL (≈ 0.318 µM)
MIC (Candida albicans [8]): 0.12 µg/mL (≈ 0.318 µM)
MIC (Candida albicans [9]): 0.12 µg/mL (≈ 0.318 µM)
MIC (Yarrowia lipolytica): 0.25 µg/mL (≈ 0.663 µM)
MIC (Candida parapsilosis): 1 µg/mL (≈ 2.65 µM)
MIC (Candida albicans [10]): 0.12 µg/mL (≈ 0.318 µM)
MIC (Candida albicans [11]): 0.25 µg/mL (≈ 0.663 µM)
MIC (Candida albicans [12]): 0.5 µg/mL (≈ 1.33 µM)
MIC (Candida albicans [13]): 0.12 µg/mL (≈ 0.318 µM)
MIC (Candida albicans [14]): 0.12 µg/mL (≈ 0.318 µM)
MIC (Candida albicans [15]): 0.12 µg/mL (≈ 0.318 µM)
MIC (Candida albicans [16]): 0.12 µg/mL (≈ 0.318 µM)
MIC (Candida albicans [17]): 0.12 µg/mL (≈ 0.318 µM)
MIC (Candida albicans [18]): 0.12 µg/mL (≈ 0.318 µM)
MIC (Nakaseomyces glabratus): 0.5 µg/mL (≈ 1.33 µM)
MIC (Candida albicans [19]): 0.06 µg/mL (≈ 0.159 µM)
MIC (Candida albicans [20]): 0.12 µg/mL (≈ 0.318 µM)
MIC (Mucor hiemalis): > 16 µg/mL
MIC (Aspergillus fumigatus): 4 µg/mL (≈ 10.6 µM)
MIC (Candida albicans [21]): 0.12 µg/mL (≈ 0.318 µM)
MIC (Candida albicans [22]): 0.12 µg/mL (≈ 0.318 µM)
MIC (Candida albicans [23]): 0.12 µg/mL (≈ 0.318 µM)
MIC (Candida albicans [24]): 0.25 µg/mL (≈ 0.663 µM)
MIC (Candida albicans [25]): 0.25 µg/mL (≈ 0.663 µM)
MIC (Candida albicans [26]): 0.12 µg/mL (≈ 0.318 µM)
MIC [27]: 16 µg/mL (≈ 42.4 µM)
MIC (Candida albicans [28]): 0.12 µg/mL (≈ 0.318 µM)
MIC (Candida albicans [29]): 0.12 µg/mL (≈ 0.318 µM)
MIC (Kluyveromyces marxianus): 0.5 µg/mL (≈ 1.33 µM)
MIC (Candida albicans [30]): 0.5 µg/mL (≈ 1.33 µM)
MIC (Pichia kudriavzevii): 1 µg/mL (≈ 2.65 µM)
MIC (Candida tropicalis): 0.5 µg/mL (≈ 1.33 µM)
MIC (Cyberlindnera jadinii): 0.5 µg/mL (≈ 1.33 µM)
MIC (Candida albicans [31]): 0.12 µg/mL (≈ 0.318 µM)
SMILES: OCc1ccc(COC(Cn2ccnc2)c2ccc(Cl)cc2Cl)cc1 (stereo not drawn)

MIC (Candida albicans [1]): 0.5 µg/mL (≈ 1.19 µM)
MIC (Rhizopus arrhizus): > 16 µg/mL
MIC (Candida albicans [2]): 0.5 µg/mL (≈ 1.19 µM)
MIC (Candida albicans [3]): 0.5 µg/mL (≈ 1.19 µM)
MIC (Candida albicans [4]): 0.06 µg/mL (≈ 0.142 µM)
MIC (Candida albicans [5]): 0.12 µg/mL (≈ 0.285 µM)
MIC (Candida albicans [6]): 0.5 µg/mL (≈ 1.19 µM)
MIC (Candida albicans [7]): 0.12 µg/mL (≈ 0.285 µM)
MIC (Candida albicans [8]): 0.12 µg/mL (≈ 0.285 µM)
MIC (Candida albicans [9]): 0.5 µg/mL (≈ 1.19 µM)
MIC (Yarrowia lipolytica): 0.5 µg/mL (≈ 1.19 µM)
MIC (Candida parapsilosis): 2 µg/mL (≈ 4.75 µM)
MIC (Candida albicans [10]): 0.5 µg/mL (≈ 1.19 µM)
MIC (Candida albicans [11]): 0.5 µg/mL (≈ 1.19 µM)
MIC (Candida albicans [12]): 0.5 µg/mL (≈ 1.19 µM)
MIC (Candida albicans [13]): 0.5 µg/mL (≈ 1.19 µM)
MIC (Candida albicans [14]): 0.5 µg/mL (≈ 1.19 µM)
MIC (Candida albicans [15]): 0.5 µg/mL (≈ 1.19 µM)
MIC (Candida albicans [16]): 0.12 µg/mL (≈ 0.285 µM)
MIC (Candida albicans [17]): 0.5 µg/mL (≈ 1.19 µM)
MIC (Candida albicans [18]): 0.25 µg/mL (≈ 0.593 µM)
MIC (Nakaseomyces glabratus): 0.5 µg/mL (≈ 1.19 µM)
MIC (Candida albicans [19]): 0.12 µg/mL (≈ 0.285 µM)
MIC (Candida albicans [20]): 0.12 µg/mL (≈ 0.285 µM)
MIC (Mucor hiemalis): > 16 µg/mL
MIC (Aspergillus fumigatus): 4 µg/mL (≈ 9.49 µM)
MIC (Candida albicans [21]): 0.5 µg/mL (≈ 1.19 µM)
MIC (Candida albicans [22]): 0.5 µg/mL (≈ 1.19 µM)
MIC (Candida albicans [23]): 0.12 µg/mL (≈ 0.285 µM)
MIC (Candida albicans [24]): 0.12 µg/mL (≈ 0.285 µM)
MIC (Candida albicans [25]): 0.5 µg/mL (≈ 1.19 µM)
MIC (Candida albicans [26]): 0.5 µg/mL (≈ 1.19 µM)
MIC [27]: 16 µg/mL (≈ 38 µM)
MIC (Candida albicans [28]): 0.12 µg/mL (≈ 0.285 µM)
MIC (Candida albicans [29]): 0.06 µg/mL (≈ 0.142 µM)
MIC (Kluyveromyces marxianus): 1 µg/mL (≈ 2.37 µM)
MIC (Candida albicans [30]): 0.5 µg/mL (≈ 1.19 µM)
MIC (Pichia kudriavzevii): 2 µg/mL (≈ 4.75 µM)
MIC (Candida tropicalis): 1 µg/mL (≈ 2.37 µM)
MIC (Cyberlindnera jadinii): 1 µg/mL (≈ 2.37 µM)
MIC (Candida albicans [31]): 0.25 µg/mL (≈ 0.593 µM)
SMILES: COc1ccc(CCOC(Cn2ccnc2)c2ccc(Cl)cc2Cl)cc1OC (stereo not drawn)

MIC (Candida albicans [1]): 0.25 µg/mL (≈ 0.587 µM)
MIC (Rhizopus arrhizus): > 16 µg/mL
MIC (Candida albicans [2]): 0.5 µg/mL (≈ 1.17 µM)
MIC (Candida albicans [3]): 0.25 µg/mL (≈ 0.587 µM)
MIC (Candida albicans [4]): 0.12 µg/mL (≈ 0.282 µM)
MIC (Candida albicans [5]): 0.12 µg/mL (≈ 0.282 µM)
MIC (Candida albicans [6]): 0.25 µg/mL (≈ 0.587 µM)
MIC (Candida albicans [7]): 0.06 µg/mL (≈ 0.141 µM)
MIC (Candida albicans [8]): 0.12 µg/mL (≈ 0.282 µM)
MIC (Candida albicans [9]): 0.12 µg/mL (≈ 0.282 µM)
MIC (Yarrowia lipolytica): 1 µg/mL (≈ 2.35 µM)
MIC (Candida parapsilosis): 1 µg/mL (≈ 2.35 µM)
MIC (Candida albicans [10]): 0.25 µg/mL (≈ 0.587 µM)
MIC (Candida albicans [11]): 0.5 µg/mL (≈ 1.17 µM)
MIC (Candida albicans [12]): 0.5 µg/mL (≈ 1.17 µM)
MIC (Candida albicans [13]): 0.25 µg/mL (≈ 0.587 µM)
MIC (Candida albicans [14]): 0.25 µg/mL (≈ 0.587 µM)
MIC (Candida albicans [15]): 0.25 µg/mL (≈ 0.587 µM)
MIC (Candida albicans [16]): 0.12 µg/mL (≈ 0.282 µM)
MIC (Candida albicans [17]): 0.12 µg/mL (≈ 0.282 µM)
MIC (Candida albicans [18]): 0.5 µg/mL (≈ 1.17 µM)
MIC (Nakaseomyces glabratus): 1 µg/mL (≈ 2.35 µM)
MIC (Candida albicans [19]): 0.12 µg/mL (≈ 0.282 µM)
MIC (Candida albicans [20]): 0.25 µg/mL (≈ 0.587 µM)
MIC (Mucor hiemalis): > 16 µg/mL
MIC (Aspergillus fumigatus): 8 µg/mL (≈ 18.8 µM)
MIC (Candida albicans [21]): 0.25 µg/mL (≈ 0.587 µM)
MIC (Candida albicans [22]): 0.25 µg/mL (≈ 0.587 µM)
MIC (Candida albicans [23]): 0.25 µg/mL (≈ 0.587 µM)
MIC (Candida albicans [24]): 0.12 µg/mL (≈ 0.282 µM)
MIC (Candida albicans [25]): 0.25 µg/mL (≈ 0.587 µM)
MIC (Candida albicans [26]): 0.25 µg/mL (≈ 0.587 µM)
MIC [27]: > 16 µg/mL
MIC (Candida albicans [28]): 0.5 µg/mL (≈ 1.17 µM)
MIC (Candida albicans [29]): 0.25 µg/mL (≈ 0.587 µM)
MIC (Kluyveromyces marxianus): 1 µg/mL (≈ 2.35 µM)
MIC (Candida albicans [30]): 0.5 µg/mL (≈ 1.17 µM)
MIC (Pichia kudriavzevii): 0.5 µg/mL (≈ 1.17 µM)
MIC (Candida tropicalis): 0.5 µg/mL (≈ 1.17 µM)
MIC (Cyberlindnera jadinii): 0.5 µg/mL (≈ 1.17 µM)
MIC (Candida albicans [31]): 0.25 µg/mL (≈ 0.587 µM)
SMILES: O=C(O)C(OC(Cn1ccnc1)c1ccc(Cl)cc1Cl)c1ccccc1Cl (stereo not drawn)
